Key:
Assay in all cases: Kinase selectivity, scanMAX Kinase assay panel (DiscoverX), % control at 1 uM
Type in all cases: binding
[1] = target: T1, scanMAX Kinase assay panel (Homo sapiens, UniProt P42336, Q546K); conditions: PIK3CA (Q546K); 1 uM; read-out: Percent Control (%)
T1 construct: purchased DiscoverX
Procedure, shortened: (§1)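 Read-out is percent of control, derived from the signal with compound relative to positive and negative controls: (compound − positive)/(negative − positive) × 100. Each enzyme received test drug at 1 uM in DMSO, and values under 35% count as active.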

[2] = target: T2, scanMAX Kinase assay panel (Homo sapiens, UniProt P07949, M918T); conditions: RET (M918T); 1 uM; read-out: Percent Control (%)
T2 construct: purchased DiscoverX
T2 sequence (P07949 29-1114 M918T): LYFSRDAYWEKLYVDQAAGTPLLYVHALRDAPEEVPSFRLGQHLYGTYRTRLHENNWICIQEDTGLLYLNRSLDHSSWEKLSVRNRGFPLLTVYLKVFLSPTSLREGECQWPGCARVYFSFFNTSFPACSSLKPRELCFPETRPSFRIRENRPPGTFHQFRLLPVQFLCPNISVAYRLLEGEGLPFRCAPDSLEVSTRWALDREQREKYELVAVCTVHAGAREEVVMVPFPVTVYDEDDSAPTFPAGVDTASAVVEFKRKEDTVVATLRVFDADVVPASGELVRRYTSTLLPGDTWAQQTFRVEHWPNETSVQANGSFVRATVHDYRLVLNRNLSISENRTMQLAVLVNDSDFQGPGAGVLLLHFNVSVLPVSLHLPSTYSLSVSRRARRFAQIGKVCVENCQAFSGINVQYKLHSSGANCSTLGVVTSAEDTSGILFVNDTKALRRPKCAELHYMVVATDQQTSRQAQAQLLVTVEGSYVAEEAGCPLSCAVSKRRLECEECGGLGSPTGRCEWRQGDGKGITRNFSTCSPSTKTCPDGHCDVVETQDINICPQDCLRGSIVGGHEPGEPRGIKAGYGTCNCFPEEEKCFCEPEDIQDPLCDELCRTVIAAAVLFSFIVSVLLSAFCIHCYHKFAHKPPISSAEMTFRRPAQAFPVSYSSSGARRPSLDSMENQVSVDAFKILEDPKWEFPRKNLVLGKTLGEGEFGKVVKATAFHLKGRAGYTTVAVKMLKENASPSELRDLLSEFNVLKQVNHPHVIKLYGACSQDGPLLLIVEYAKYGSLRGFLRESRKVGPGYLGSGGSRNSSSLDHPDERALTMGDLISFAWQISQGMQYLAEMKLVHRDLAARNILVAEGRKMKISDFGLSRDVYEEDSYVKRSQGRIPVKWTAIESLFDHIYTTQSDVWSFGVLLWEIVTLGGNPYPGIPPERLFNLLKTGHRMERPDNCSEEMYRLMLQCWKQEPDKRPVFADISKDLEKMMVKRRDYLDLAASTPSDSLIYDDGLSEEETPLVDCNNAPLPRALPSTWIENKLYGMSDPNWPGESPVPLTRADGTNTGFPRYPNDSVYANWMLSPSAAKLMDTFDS
Procedure, shortened: as §1

[3] = target: T3, scanMAX Kinase assay panel (Homo sapiens, UniProt P42336, I800L); conditions: PIK3CA (I800L); 1 uM; read-out: Percent Control (%)
T3 construct: purchased DiscoverX
T3 sequence (P42336 whole entry I800L): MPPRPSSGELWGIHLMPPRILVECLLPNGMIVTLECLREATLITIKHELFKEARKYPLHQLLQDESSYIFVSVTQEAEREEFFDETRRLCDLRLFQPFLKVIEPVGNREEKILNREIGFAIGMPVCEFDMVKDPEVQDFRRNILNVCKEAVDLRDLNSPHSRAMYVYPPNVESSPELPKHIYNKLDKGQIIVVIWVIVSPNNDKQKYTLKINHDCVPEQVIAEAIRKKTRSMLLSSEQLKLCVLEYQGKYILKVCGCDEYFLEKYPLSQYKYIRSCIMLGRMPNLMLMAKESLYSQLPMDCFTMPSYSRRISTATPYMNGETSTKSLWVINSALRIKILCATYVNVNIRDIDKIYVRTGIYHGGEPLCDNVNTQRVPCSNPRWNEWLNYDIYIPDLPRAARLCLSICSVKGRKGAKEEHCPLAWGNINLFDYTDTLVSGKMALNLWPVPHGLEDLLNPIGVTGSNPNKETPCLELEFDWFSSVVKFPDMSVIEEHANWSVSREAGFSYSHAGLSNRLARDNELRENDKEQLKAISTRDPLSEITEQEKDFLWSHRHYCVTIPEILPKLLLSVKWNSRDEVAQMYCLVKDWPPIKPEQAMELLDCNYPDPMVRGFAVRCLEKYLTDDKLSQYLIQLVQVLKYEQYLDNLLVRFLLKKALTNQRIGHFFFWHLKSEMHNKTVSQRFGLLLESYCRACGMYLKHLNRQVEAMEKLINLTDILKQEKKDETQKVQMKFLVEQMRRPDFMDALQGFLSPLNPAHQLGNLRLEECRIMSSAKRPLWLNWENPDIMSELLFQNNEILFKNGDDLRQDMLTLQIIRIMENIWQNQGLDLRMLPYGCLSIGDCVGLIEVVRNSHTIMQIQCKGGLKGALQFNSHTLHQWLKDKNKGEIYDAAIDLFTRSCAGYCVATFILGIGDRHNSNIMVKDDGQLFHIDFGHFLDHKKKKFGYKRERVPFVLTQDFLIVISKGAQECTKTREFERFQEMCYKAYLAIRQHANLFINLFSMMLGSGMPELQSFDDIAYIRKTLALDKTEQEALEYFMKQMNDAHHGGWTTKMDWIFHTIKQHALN
Procedure, shortened: as §1

[4] = target: T4, scanMAX Kinase assay panel (Homo sapiens, UniProt Q9H4A3); conditions: WNK1; 1 uM; read-out: Percent Control (%)
T4 construct: purchased DiscoverX
Procedure, shortened: as §1

[5] = target: T5, scanMAX Kinase assay panel (Homo sapiens, UniProt P54753); conditions: EPHB3; 1 uM; read-out: Percent Control (%)
T5 construct: purchased DiscoverX
T5 sequence (P54753 34-998): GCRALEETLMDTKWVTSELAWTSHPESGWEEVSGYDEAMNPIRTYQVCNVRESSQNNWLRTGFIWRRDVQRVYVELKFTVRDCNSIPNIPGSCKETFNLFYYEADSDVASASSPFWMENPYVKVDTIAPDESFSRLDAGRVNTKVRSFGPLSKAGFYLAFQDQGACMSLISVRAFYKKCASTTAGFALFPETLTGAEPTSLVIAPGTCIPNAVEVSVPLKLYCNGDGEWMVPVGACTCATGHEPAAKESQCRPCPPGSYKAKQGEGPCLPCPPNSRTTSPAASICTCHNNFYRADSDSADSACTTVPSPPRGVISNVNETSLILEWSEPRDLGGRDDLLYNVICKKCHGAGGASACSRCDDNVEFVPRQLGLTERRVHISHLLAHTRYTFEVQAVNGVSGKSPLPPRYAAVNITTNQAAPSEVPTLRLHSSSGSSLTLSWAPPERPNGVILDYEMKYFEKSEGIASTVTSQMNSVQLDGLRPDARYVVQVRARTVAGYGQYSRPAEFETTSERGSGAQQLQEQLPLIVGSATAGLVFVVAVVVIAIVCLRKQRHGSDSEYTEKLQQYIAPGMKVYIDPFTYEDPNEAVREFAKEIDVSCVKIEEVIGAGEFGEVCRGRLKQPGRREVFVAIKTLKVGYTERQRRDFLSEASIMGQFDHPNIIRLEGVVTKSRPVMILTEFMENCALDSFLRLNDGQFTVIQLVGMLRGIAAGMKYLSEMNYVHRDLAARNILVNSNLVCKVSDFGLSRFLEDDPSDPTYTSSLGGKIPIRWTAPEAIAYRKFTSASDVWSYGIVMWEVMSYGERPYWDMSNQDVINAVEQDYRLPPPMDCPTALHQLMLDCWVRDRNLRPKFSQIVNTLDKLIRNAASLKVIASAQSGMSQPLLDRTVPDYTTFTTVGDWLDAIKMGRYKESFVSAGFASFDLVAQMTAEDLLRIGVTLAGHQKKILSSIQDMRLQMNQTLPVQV
Procedure, shortened: as §1

[6] = target: T6, scanMAX Kinase assay panel (Homo sapiens, UniProt Q8WU08); conditions: YANK1; 1 uM; read-out: Percent Control (%)
T6 construct: purchased DiscoverX
Procedure, shortened: as §1

[7] = target: T7, scanMAX Kinase assay panel (Homo sapiens, UniProt Q32MK0); conditions: MLCK; 1 uM; read-out: Percent Control (%)
T7 construct: purchased DiscoverX
T7 sequence (Q32MK0 1-819): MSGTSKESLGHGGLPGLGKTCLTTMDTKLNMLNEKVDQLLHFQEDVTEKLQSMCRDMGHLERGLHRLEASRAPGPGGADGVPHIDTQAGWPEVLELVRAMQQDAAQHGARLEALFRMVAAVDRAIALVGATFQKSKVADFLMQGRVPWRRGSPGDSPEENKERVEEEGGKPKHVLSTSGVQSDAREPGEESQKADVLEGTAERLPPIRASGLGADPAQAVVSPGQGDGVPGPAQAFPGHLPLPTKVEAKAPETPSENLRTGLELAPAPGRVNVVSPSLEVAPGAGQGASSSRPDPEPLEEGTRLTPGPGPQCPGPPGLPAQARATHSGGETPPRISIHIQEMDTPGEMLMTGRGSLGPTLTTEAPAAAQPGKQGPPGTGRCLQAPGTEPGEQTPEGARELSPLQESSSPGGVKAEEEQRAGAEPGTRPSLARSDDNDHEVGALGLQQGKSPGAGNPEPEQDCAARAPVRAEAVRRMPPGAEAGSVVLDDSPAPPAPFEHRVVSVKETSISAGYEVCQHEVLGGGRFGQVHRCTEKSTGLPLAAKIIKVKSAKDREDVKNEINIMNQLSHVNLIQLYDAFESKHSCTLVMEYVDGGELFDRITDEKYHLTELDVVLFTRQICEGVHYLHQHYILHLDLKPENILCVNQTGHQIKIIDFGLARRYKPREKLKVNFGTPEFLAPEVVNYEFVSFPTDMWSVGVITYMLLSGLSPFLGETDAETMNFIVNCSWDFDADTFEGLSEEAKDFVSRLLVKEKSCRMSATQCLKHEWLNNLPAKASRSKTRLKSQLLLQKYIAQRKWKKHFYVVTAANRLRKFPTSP
Procedure, shortened: as §1

[8] = target: T8, scanMAX Kinase assay panel (Homo sapiens, UniProt P08581, M1250T); conditions: MET (M1250T); 1 uM; read-out: Percent Control (%)
T8 construct: purchased DiscoverX
T8 sequence (P08581 25-1390 M1250T): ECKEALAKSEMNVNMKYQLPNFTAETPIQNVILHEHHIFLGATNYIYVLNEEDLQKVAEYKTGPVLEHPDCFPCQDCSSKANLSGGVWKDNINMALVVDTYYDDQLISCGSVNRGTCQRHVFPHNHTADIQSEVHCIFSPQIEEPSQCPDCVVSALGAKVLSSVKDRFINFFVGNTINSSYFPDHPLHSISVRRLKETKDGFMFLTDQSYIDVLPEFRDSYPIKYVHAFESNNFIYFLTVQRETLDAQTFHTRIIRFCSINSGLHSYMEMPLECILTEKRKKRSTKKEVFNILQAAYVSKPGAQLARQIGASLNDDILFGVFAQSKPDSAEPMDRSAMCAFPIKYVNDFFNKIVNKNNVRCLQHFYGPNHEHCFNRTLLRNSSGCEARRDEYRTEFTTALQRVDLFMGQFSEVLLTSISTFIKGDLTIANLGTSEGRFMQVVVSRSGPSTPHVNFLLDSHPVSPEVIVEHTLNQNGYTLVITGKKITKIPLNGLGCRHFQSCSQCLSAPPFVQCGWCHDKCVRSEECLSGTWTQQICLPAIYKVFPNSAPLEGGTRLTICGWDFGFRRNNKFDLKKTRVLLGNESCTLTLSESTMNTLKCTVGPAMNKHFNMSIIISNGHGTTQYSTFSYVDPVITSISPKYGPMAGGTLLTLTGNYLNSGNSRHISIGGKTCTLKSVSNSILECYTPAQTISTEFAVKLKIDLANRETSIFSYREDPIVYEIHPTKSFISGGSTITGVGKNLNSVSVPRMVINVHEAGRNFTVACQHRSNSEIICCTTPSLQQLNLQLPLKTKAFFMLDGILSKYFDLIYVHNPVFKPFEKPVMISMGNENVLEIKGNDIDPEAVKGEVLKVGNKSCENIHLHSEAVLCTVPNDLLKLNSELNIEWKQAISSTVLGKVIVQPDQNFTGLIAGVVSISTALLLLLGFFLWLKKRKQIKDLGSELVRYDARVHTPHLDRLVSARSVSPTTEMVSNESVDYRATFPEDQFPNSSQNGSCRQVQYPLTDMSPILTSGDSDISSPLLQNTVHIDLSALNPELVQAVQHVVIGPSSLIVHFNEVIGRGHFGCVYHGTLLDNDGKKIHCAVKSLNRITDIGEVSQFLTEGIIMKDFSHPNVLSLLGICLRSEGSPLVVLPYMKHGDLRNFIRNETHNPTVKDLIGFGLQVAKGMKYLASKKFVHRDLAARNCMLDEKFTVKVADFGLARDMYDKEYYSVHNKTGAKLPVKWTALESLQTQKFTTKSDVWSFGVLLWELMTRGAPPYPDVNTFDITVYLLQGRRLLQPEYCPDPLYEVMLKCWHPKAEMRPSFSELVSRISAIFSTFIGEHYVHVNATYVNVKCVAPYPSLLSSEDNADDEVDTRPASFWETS
Procedure, shortened: as §1

[9] = target: T9, scanMAX Kinase assay panel (Homo sapiens, UniProt O94804); conditions: LOK; 1 uM; read-out: Percent Control (%)
T9 construct: purchased DiscoverX
T9 sequence (O94804 whole entry): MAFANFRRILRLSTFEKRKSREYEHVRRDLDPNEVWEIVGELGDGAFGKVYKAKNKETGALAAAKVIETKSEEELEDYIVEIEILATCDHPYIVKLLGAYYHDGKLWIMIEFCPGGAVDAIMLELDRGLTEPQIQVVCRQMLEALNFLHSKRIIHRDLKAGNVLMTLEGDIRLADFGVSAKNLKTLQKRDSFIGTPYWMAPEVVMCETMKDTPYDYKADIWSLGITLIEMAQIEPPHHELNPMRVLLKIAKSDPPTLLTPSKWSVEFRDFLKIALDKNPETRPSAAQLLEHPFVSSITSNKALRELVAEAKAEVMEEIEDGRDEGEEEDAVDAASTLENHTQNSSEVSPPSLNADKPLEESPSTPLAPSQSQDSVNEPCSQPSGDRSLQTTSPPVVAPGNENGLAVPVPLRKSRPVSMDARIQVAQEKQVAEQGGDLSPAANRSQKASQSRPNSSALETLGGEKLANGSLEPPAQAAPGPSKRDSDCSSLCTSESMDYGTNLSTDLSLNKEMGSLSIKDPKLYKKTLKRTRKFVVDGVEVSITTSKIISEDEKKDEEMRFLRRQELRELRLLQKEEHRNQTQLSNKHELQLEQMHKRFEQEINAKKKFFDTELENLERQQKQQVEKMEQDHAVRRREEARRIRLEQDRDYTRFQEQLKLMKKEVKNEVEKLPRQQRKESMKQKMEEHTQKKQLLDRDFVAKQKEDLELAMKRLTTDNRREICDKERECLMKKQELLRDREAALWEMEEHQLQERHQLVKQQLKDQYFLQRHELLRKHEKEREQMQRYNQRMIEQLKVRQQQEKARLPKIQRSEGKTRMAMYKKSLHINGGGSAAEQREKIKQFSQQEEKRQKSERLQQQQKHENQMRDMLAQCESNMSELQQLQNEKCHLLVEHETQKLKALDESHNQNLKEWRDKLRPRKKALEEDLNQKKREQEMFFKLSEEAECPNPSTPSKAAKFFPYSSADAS
Procedure, shortened: as §1

[10] = target: T10, scanMAX Kinase assay panel (Homo sapiens, UniProt Q00532); conditions: CDKL1; 1 uM; read-out: Percent Control (%)
T10 construct: purchased DiscoverX
T10 sequence (Q00532 whole entry): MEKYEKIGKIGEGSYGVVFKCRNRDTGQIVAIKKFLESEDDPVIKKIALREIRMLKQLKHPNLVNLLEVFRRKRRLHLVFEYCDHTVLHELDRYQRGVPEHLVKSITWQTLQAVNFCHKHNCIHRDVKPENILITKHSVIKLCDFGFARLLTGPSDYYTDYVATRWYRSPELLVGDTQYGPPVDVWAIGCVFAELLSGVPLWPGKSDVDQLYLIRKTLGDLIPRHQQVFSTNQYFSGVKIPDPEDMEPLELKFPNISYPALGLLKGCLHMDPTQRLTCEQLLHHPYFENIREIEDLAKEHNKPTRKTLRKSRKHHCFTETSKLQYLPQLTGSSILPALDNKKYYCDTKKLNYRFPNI
Procedure, shortened: as §1

[11] = target: T11, scanMAX Kinase assay panel (Homo sapiens, UniProt P12931); conditions: SRC; 1 uM; read-out: Percent Control (%)
T11 construct: purchased DiscoverX
Procedure, shortened: as §1

T1 sequence (P42336 whole entry Q546K): as the sequence (P42336 whole entry I800L) above, with Q546K, L800I counted along it

Row | Structure (SMILES) | remaining binding at 1 µM [1] [%] | remaining binding at 1 µM [2] [%] | remaining binding at 1 µM [3] [%] | remaining binding at 1 µM [4] [%] | remaining binding at 1 µM [5] [%] | remaining binding at 1 µM [6] [%] | remaining binding at 1 µM [7] [%] | remaining binding at 1 µM [8] [%] | remaining binding at 1 µM [9] [%] | remaining binding at 1 µM [10] [%] | remaining binding at 1 µM [11] [%]
1 | Cc1ccc(C(=O)Nc2ccc(CN3CCN(C)CC3)c(C(F)(F)F)c2)cc1C#Cc1cnc2c(Nc3cnn(C)c3)cccn12 [Example 1, 4-methyl-3-((8-((1-methyl-1H-pyrazol-4-yl)amino)imidazo[1,2-a]pyridin-3-yl)ethynyl)-N-(4-((4-methylpiperazin-1-yl)methyl)-3-(trifluoromethyl)phenyl)benzamide] | 83 | 0 | 80 | 55 | 47 | 69 | 90 | 32 | 0 | 25 | 0
2 | Cc1cn(-c2cc(NC(=O)c3ccc(C)c(C#Cc4cnc5c(Nc6cnn(C)c6)cccn45)c3)cc(C(F)(F)F)c2)cn1 [Example 12, 4-methyl-N-(3-(4-methyl-1H-imidazol-1-yl)-5-(trifluoromethyl)phenyl)-3-((8-((1-methyl-1H-pyrazol-4-yl)amino)imidazo[1,2-a]pyridin-3-yl)ethynyl)benzamide] | 100 | 0 | 75 | 100 | 100 | 98 | 91 | 28 | 0 | 60 | 1
3 | Cc1ccc(NC(=O)C2(C(=O)Nc3ccc(F)cc3)CC2)cc1C#Cc1cnc2c(Nc3cnn(C(C)C)c3)cccn12 [Example 78] | 89 | 100 | 92 | 92 | 100 | 84 | 100 | 91 | 0 | 83 | 73

Source: patent publication US10870647B2, “Imidazopyridine derivative, method for preparing same, and pharmaceutical composition containing same as active ingredient for preventing or treating cancer” (DAEGU-GYEONGBUK MEDICAL INNOVATION FOUNDATION, priority 2016, dated 2020)
